Assay results as given in publication doi:10.1101/2024.09.04.611242v3 (bioRxiv, 2024).

How the values were obtained:
[1] = tested on: microglial cells in OHSC; experiment: Microglia proliferation and activation in OHSC; type: cell-based, CD1 mice; conditions: 10 µM Cu(II)=shuttle, 20 µM Aβ1-40/42, 48h, Iba1 staining, n=3
[2] = Reduction/release of shuttle-bound Cu; type: physicochemical; conditions: 5 mM GSH, HEPES 100 mM pH 7.4
[3] = target: Cu(II)Aβ1-16 (Homo sapiens, UniProt P05067); experiment: Retrieval of Cu; type: binding; conditions: 25°C; for time to complete retrieval of Cu(II) from Aβ1-16: HEPES buffer / 10% DMEM, shuttle 5 µM, Aβ1-16 10 µM, Cu(II) 5 µM; for Kinetics of Cu(II) transfer from Aß1-16 to shuttle, DMEM 10%: shuttle=Cu(II)=5 µM, Aß1-16=10 µM, 10% DMEM, NBD emission 545 nm, n=3
[4] = tested on: PC12 cells; experiment: Rescue of PC12 cells from Cu; type: cell-based; conditions: 5 µM shuttle, 10 µM Cu(II)Aβ1-16 0.5:1, AscH-, 10% DMEM, 24h, MTT, n=3
[5] = Selective Cu; type: binding; conditions: for Average half-time of Cu(II) withdrawal, Cu(II), D/F / Average half-time of Cu(II) withdrawal, Cu(II), DMEM 10%: Cu(II) alone, Cu(II)=shuttle=5 µM, 25°C, NBD emission at 545 nm, n=3; for Average half-time of Cu(II) withdrawal, Cu(II), D/F: D/F 100%; for Cu(II) withdrawn from D/F media over the measurement duration: D/F media spiked with 5 µM Cu(II), shuttle 5 µM, NBD emission followed for 5h
[6] = tested on: PC12 cells; experiment: Toxicity of shuttles on PC12 cells; type: cell-based; conditions: 5 x 10^4 PC12 cells, 24h, 100% DMEM media

Compound | effect on Cu(II)(Aβ1-40/42)-induced microglial cell proliferation in OHSC [1] | half-time of reduction of shuttle-bound Cu(II) by GSH (in words) [2] | time to complete retrieval of Cu(II) from Aβ1-16 [3] | Kinetics of Cu(II) transfer from Aß1-16 to shuttle, DMEM 10% [3] | rescue of Cu(II)Aβ1-16-induced toxicity in PC12 cells [4] | Average half-time of Cu(II) withdrawal, Cu(II), D/F [5] | Average half-time of Cu(II) withdrawal, Cu(II), DMEM 10% [5] | Cu(II) withdrawn from D/F media over the measurement duration [5] | toxicity to PC12 cells (in words) [6]
H2N-Dap-His-His-αR5W4^NBD [DapHH-αR5W4^NBD] | reduced microglial cell proliferation | only a few minutes | less than two minutes | 47.9 ± 9.2 s | reversed | 4.3 ± 0.6 min | < 1 min | > 80% | –
H2N-His-Dap-His-αR5W4^NBD [HDapH-αR5W4^NBD] | reduced microglial cell proliferation | only a few minutes | less than two minutes | 14.5 ± 3.8 s | reversed | < 1 min | < 1 min | completely withdrew | –
CN=C([S-])N/N=C/C=N/NC([S-])=NC.[Cu+2] [Cu(II)GTSM] | – | – | – | – | – | – | – | – | toxic to PC12 cells
CNC(=S)NN=CC=NNC(=S)NC [GTSM, glyoxal-bis(4-methylthiosemicarbazonato)] | – | – | – | – | – | – | – | – | toxic at nanomolar concentration
